The values that follow come from patent publication US20230365537A1, “POLO LIKE KINASE 4 INHIBITORS” (ORIC Pharmaceuticals, Inc., priority 2021, published 2023).

SMILES strings stand for the structures. pIC50: −log10 of the molar value.

For assay [1], the system named is CHP-134 cells. Description: CHP134 CellTiter-Glo (CTG) Assay. The assay is classed as cell-based. The settings on record: Homo sapiens, CHP-134, 120 h, 5 days, viable cells by CellTiter-Glo. The procedure, abridged: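 CHP-134 cells seeded at 200 cells/well for 16 h, then given nine 1:3 serial dilutions in quadruplicate at 37° C, 5% CO2. Viable cells measured by CellTiter-Glo luminescence after 5 days; IC50 calculated from curves.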

The target of assay [2] is human recombinant PLK4 (Homo sapiens (Human), UniProt O00444). Description: PLK4 Biochemical Assay (ADP-Glo). The settings on record: 0.5 nM PLK4, 8.0 µM ATP, 4.7 µM MBP, 6 hours at RT. The procedure, abridged:
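Recombinant human PLK4 (added at 1.0 nM) was preincubated 15 min at RT with compound in 50 mM HEPES pH 7.5, 10 mM MgCl2, 1 mM EGTA, 1 mM DTT, 0.01% Brij-35, 0.01% BSA. ADP formed was detected by ADP-Glo luminescence (40 min ATP depletion, 30 min detection). IC50 came from a four-parameter fit.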

For assay [3], the target named is human recombinant Aurora A (Homo sapiens (Human), UniProt O14965). The assay can be described thus: Aurora A Kinase Biochemical Assay (ADP-Glo). The settings on record: ratio of Aurora A IC50 to PLK4 IC50 (selectivity).
The target of assay [4] is human recombinant Aurora B (Homo sapiens (Human), UniProt Q96GD4). Description: Aurora B Kinase Biochemical Assay (ADP-Glo). The settings on record: ratio of Aurora B IC50 to PLK4 IC50 (selectivity). Put shortly: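 Recombinant human Aurora B (20 nM in pH 7.5 HEPES buffer with MgCl2, EGTA, DTT, Brij-35, BSA) preincubated with compound 15 min at RT. ADP formed quantified by ADP-Glo luminescence after ATP depletion (40 min) and detection (30 min). IC50 from four-parameter non-linear regression.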
Sequence of human recombinant Aurora B (Q96GD4 whole entry): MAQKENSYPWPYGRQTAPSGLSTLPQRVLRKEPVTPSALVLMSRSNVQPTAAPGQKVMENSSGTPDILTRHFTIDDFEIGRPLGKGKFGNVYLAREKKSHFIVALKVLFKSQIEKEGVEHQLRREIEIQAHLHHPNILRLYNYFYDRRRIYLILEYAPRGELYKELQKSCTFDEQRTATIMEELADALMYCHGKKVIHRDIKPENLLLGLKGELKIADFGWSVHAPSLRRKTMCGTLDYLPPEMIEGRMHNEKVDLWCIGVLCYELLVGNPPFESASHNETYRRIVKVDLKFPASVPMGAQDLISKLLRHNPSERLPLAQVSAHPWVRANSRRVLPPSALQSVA

Sequence of human recombinant PLK4 (O00444 whole entry): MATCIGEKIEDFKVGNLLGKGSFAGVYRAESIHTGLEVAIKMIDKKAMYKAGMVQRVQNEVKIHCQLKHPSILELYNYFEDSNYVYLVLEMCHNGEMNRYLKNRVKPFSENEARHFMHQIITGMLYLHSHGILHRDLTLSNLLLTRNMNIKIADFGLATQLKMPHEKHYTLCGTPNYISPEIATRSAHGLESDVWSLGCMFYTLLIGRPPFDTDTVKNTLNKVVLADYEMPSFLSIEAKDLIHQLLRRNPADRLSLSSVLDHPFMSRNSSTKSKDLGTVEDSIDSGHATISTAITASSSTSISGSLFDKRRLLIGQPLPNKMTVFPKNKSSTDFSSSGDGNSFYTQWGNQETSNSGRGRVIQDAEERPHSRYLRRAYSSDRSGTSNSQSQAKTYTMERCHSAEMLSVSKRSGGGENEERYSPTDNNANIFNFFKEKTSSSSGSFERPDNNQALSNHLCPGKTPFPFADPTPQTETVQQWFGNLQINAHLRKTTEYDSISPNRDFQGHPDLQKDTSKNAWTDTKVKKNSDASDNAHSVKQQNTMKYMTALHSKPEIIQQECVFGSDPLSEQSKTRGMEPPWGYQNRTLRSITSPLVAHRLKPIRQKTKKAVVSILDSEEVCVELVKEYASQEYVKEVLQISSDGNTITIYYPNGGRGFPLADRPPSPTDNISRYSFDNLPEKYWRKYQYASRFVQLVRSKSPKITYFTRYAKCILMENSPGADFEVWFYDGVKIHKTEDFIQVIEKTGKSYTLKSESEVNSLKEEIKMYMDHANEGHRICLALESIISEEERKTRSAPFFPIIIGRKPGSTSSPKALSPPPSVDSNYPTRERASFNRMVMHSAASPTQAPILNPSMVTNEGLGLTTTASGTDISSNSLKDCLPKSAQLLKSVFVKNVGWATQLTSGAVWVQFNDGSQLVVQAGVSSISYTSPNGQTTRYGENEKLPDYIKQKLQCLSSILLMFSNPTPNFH
Sequence of human recombinant Aurora A (O14965 whole entry): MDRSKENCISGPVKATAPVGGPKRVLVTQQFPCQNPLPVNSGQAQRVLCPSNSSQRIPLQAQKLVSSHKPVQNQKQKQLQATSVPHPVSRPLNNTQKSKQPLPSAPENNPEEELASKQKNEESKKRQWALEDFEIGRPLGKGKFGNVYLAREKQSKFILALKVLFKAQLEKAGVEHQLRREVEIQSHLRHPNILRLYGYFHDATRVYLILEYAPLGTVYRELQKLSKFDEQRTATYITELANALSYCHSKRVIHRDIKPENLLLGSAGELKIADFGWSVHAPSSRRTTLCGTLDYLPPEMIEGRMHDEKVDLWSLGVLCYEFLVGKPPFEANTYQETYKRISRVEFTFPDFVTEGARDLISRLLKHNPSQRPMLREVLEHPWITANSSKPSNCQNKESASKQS

With `COc1ccc2c(c1)[C@]1(C[C@H]1c1ccc3c(Nc4ncc(S(=O)(=O)N5CCOCC5)cc4OC)n[nH]c3c1)C(=O)N2` [Example 255], the pIC50 (in general, −log10 of the IC50, conventionally taken in molar units) was 6.42 in assay [1] and 8.93 in assay [2]. Further, in assay [3], the “[Aurora A IC50 (nM)]/[PLK4 IC50 (nM)]” value is listed as 840.1202. For the same compound, the “[Aurora B IC50 (nM)]/[PLK4 IC50 (nM)]” value in assay [4] is given as 566.4948.

`COc1ccc2c(c1)[C@]1(C[C@H]1c1ccc3c(Nc4ncc(S(=O)(=O)N5CC6CCC(C5)O6)cc4OC)n[nH]c3c1)C(=O)N2` [Example 256, (1R,2S)-5′-methoxy-2-(3-{[3-methoxy-5-(8-oxa-3-azabicyclo[3.2.1]octane-3-sulfonyl)pyridin-2-yl]amino}-1H-indazol-6-yl)spiro[cyclopropane-1,3′-indol]-2′(1′H)-one]: the negative-log IC50 (pIC50) in assay [1] was 6.51; in assay [2], 9.19. The “[Aurora A IC50 (nM)]/[PLK4 IC50 (nM)]” value in assay [3] was 1143.4287. Moreover, in assay [4], the “[Aurora B IC50 (nM)]/[PLK4 IC50 (nM)]” value was found to be 1153.

Take `CCP(=O)(CC)c1ccc(Nc2n[nH]c3cc([C@@H]4C[C@@]45C(=O)Nc4ccc(OC)cc45)ccc23)c(OC)n1` [Example 257, (1R,2S)-2-(3-{[6-(diethylphosphoryl)-2-methoxypyridin-3-yl]amino}-1H-indazol-6-yl)-5′-methoxyspiro[cyclopropane-1,3′-indol]-2′(1′H)-one]: the pIC50 in assay [1] was 5.80; in assay [2], 8.41. In assay [3], the “[Aurora A IC50 (nM)]/[PLK4 IC50 (nM)]” value was 1259.8465. Moreover, the “[Aurora B IC50 (nM)]/[PLK4 IC50 (nM)]” value in assay [4] was determined as 324.5524.

For the compound `COc1ccc2c(c1)[C@]1(C[C@H]1c1ccc3c(Nc4ncc(S(=O)(=O)C5CC5)cc4OC)n[nH]c3c1)C(=O)N2` [Example 258, (1R,2S)-2-(3-{[5-(Cyclopropanesulfonyl)-3-methoxypyridin-2-yl]amino}-1H-indazol-6-yl)-5′-methoxyspiro[cyclopropane-1,3′-indol]-2′(1′H)-one], the negative logarithm of the IC50 (pIC50) is 6.78 in assay [1] and 8.85 in assay [2]. Also, in assay [3], the “[Aurora A IC50 (nM)]/[PLK4 IC50 (nM)]” value worked out at 1100.4954. Further, in assay [4], the “[Aurora B IC50 (nM)]/[PLK4 IC50 (nM)]” value came out at 464.7558.

Turning to `COc1ccc2c(c1)[C@]1(C[C@H]1c1ccc3c(Nc4ncc(S(=O)(=O)C5CCOCC5)cc4OC)n[nH]c3c1)C(=O)N2` [Example 259, (1R,2S)-5′-methoxy-2-(3-{[3-methoxy-5-(oxane-4-sulfonyl)pyridin-2-yl]amino}-1H-indazol-6-yl)spiro[cyclopropane-1,3′-indol]-2′(1′H)-one], the pIC50 in assay [1] is 6.05; in assay [2], 9.01. In assay [3], the “[Aurora A IC50 (nM)]/[PLK4 IC50 (nM)]” value is 1294.8084. For the same compound, the “[Aurora B IC50 (nM)]/[PLK4 IC50 (nM)]” value in assay [4] is reported as 835.2904.

Consider `CCS(=O)(=O)c1cc(OC)c(Nc2n[nH]c3cc([C@@H]4C[C@@]45C(=O)Nc4ccc(OC)cc45)ccc23)cn1` [Example 262, (1R,2S)-2-(3-{[6-(ethanesulfonyl)-4-methoxypyridin-3-yl]amino}-1H-indazol-6-yl)-5′-methoxyspiro[cyclopropane-1,3′-indol]-2′(1′H)-one], for which the pIC50 in assay [1] is 6.29; in assay [2], 8.86. Further, the “[Aurora A IC50 (nM)]/[PLK4 IC50 (nM)]” value in assay [3] came to 3488.1209. The “[Aurora B IC50 (nM)]/[PLK4 IC50 (nM)]” value in assay [4] was 526.7.

For `COc1ccc2c(c1)[C@]1(C[C@H]1c1ccc3c(Nc4ncc(C(=O)N5CCC5)cc4OC)n[nH]c3c1)C(=O)N2` [Example 263, (1R,2S)-2-(3-{[5-(azetidine-1-carbonyl)-3-methoxypyridin-2-yl]amino}-1H-indazol-6-yl)-5′-methoxyspiro[cyclopropane-1,3′-indol]-2′(1′H)-one], the pIC50 is 6.22 in assay [1] and 9.19 in assay [2]. Moreover, the “[Aurora A IC50 (nM)]/[PLK4 IC50 (nM)]” value in assay [3] came to 1133.6923. The “[Aurora B IC50 (nM)]/[PLK4 IC50 (nM)]” value in assay [4] is 181.6923.

For the compound `COc1ccc2c(c1)[C@]1(C[C@H]1c1ccc3c(Nc4ncc(C(=O)N5CCOCC5)cc4OC)n[nH]c3c1)C(=O)N2` [Example 264, (1R,2S)-5′-methoxy-2-(3-{[3-methoxy-5-(morpholine-4-carbonyl)pyridin-2-yl]amino}-1H-indazol-6-yl)spiro[cyclopropane-1,3′-indol]-2′(1′H)-one], the negative logarithm of the IC50 (pIC50) is 6.07 in assay [1] and 9.11 in assay [2]. The “[Aurora A IC50 (nM)]/[PLK4 IC50 (nM)]” value in assay [3] was 307.8980. For the same compound, the “[Aurora B IC50 (nM)]/[PLK4 IC50 (nM)]” value in assay [4] is recorded as 66.6751.

With `COc1ccc2c(c1)[C@]1(C[C@H]1c1ccc3c(Nc4cc5c(cc4OC)C(=O)N(C)C5)n[nH]c3c1)C(=O)N2` [Example 265, (1R,2S)-5′-methoxy-2-{3-[(6-methoxy-2-methyl-1-oxo-2,3-dihydro-1H-isoindol-5-yl)amino]-1H-indazol-6-yl)spiro[cyclopropane-1,3′-indol]-2′(1′H)-one], the pIC50 in assay [1] was 5.97; in assay [2] it was 8.70. The “[Aurora A IC50 (nM)]/[PLK4 IC50 (nM)]” value in assay [3] is on record as 686. Moreover, in assay [4], the “[Aurora B IC50 (nM)]/[PLK4 IC50 (nM)]” value came out at 725.3912.

Turning to `COc1ccc2c(c1)[C@]1(C[C@H]1c1ccc3c(Nc4ccc5c(c4OC)CN(C)C5=O)n[nH]c3c1)C(=O)N2` [Example 266, (1R,2S)-5′-methoxy-2-{3-[(4-methoxy-2-methyl-1-oxo-2,3-dihydro-1H-isoindol-5-yl)amino]-1H-indazol-6-yl}spiro[cyclopropane-1,3′-indol]-2′(1′H)-one], the results for the negative logarithm of the IC50 (pIC50) in assay [1] and in assay [2] were 6.10 and 8.63, respectively. In assay [3], the “[Aurora A IC50 (nM)]/[PLK4 IC50 (nM)]” value is 723.9761. Also, the “[Aurora B IC50 (nM)]/[PLK4 IC50 (nM)]” value in assay [4] amounted to 154.9914.

As to `COc1ccc2c(c1)[C@]1(C[C@H]1c1ccc3c(Nc4ncc(S(=O)(=O)N5CCCO5)cc4OC)n[nH]c3c1)C(=O)N2` [Example 267, (1R,2S)-5′-methoxy-2-(3-{[3-methoxy-5-(1,2-oxazolidine-2-sulfonyl)pyridin-2-yl]amino}-1H-indazol-6-yl)spiro[cyclopropane-1,3′-indol]-2′(1′H)-one], the negative logarithm of the IC50 (pIC50) is 6.49 in assay [1] and 8.80 in assay [2]. In addition, in assay [3], the “[Aurora A IC50 (nM)]/[PLK4 IC50 (nM)]” value is listed as 789.0376. For the same compound, the “[Aurora B IC50 (nM)]/[PLK4 IC50 (nM)]” value in assay [4] was 406.8833.

Take `COc1ccc2c(c1)[C@]1(C[C@H]1c1ccc3c(Nc4ncc(S(=O)(=O)N5CCC5)cc4OC)n[nH]c3c1)C(=O)N2` [Example 268, (1R,2S)-2-(3-{[5-(azetidine-1-sulfonyl)-3-methoxypyridin-2-yl]amino}-1H-indaxol-6-yl)-5′-methoxyspiro[cyclopropane-1,3′-indol]-2′(1′H)-one]: the negative logarithm of the IC50 (pIC50) in assay [1] is 6.91; in assay [2], 9.06. In addition, the “[Aurora A IC50 (nM)]/[PLK4 IC50 (nM)]” value in assay [3] was found to be 1159. Besides, the “[Aurora B IC50 (nM)]/[PLK4 IC50 (nM)]” value in assay [4] was 769.9084.

In the case of `COc1ccc2c(c1)[C@]1(C[C@H]1c1ccc3c(Nc4ncc(S(=O)(=O)NC5(C)COC5)cc4OC)n[nH]c3c1)C(=O)N2` [Example 269, 5-methoxy-6-({6-[(1R,2S)-5′-methoxy-2′-oxo-1′,2′-dihydrospiro[cyclopropane-1,3′-indol]-2-yl]-1H-indazol-3-yl}amino)-N-(3-methyloxetan-3-yl)pyridine-3-sulfonamide], the pIC50 is 5.87 in assay [1] and 9.05 in assay [2]. The “[Aurora A IC50 (nM)]/[PLK4 IC50 (nM)]” value in assay [3] was 191.7977. For the same compound, the “[Aurora B IC50 (nM)]/[PLK4 IC50 (nM)]” value in assay [4] turned out to be 138.7640.

On to `COc1ccc2c(c1)[C@]1(C[C@H]1c1ccc3c(Nc4ncc(S(=O)(=O)N(C)C5(C)COC5)cc4OC)n[nH]c3c1)C(=O)N2` [Example 270, 5-methoxy-6-({6-[(1R,2S)-5′-methoxy-2′-oxo-1′,2′-dihydrospiro[cyclopropane-1,3′-indol]-2-yl]-1H-indazol-3-yl}amino)-N-methyl-N-(3-methyloxetan-3-yl)pyridine-3-sulfonamide], for which the pIC50 in assay [1] is 6.57; in assay [2], 9.25. Besides, in assay [3], the “[Aurora A IC50 (nM)]/[PLK4 IC50 (nM)]” value was determined as 473.6. The “[Aurora B IC50 (nM)]/[PLK4 IC50 (nM)]” value in assay [4] was determined as 1790.7801.

As for `CCOc1cc(S(C)(=O)=O)ccc1Nc1n[nH]c2cc([C@@H]3C[C@@]34C(=O)Nc3ccc(OC)cc34)ccc12` [Example 272, (1R,2S)-2-{3-[2-Ethoxy-4-(methanesulfonyl)anilino]-1H-indazol-6-yl}-5′-methoxyspiro[cyclopropane-1,3′-indol]-2′(1′H)-one], the pIC50 in assay [1] is 7.11; in assay [2] it was 9.08. For the same compound, the “[Aurora A IC50 (nM)]/[PLK4 IC50 (nM)]” value in assay [3] turned out to be 3273.7094. For the same compound, the “[Aurora B IC50 (nM)]/[PLK4 IC50 (nM)]” value in assay [4] turned out to be 448.8595.

With `CCOc1cc(S(=O)(=O)N2CCN(C)CC2)cnc1Nc1n[nH]c2cc([C@@H]3C[C@@]34C(=O)Nc3ccc(OC)cc34)ccc12` [Example 273, (1R,2S)-2-(3-{[3-ethoxy-5-(4-methylpiperazine-1-salfonyl)pyridin-2-yl]amino)-1H-indazol-6-yl)-5′-methoxyspiro[cyclopropane-1,3′-indol]-2′(1′H)-one], the negative-log IC50 (pIC50) in assay [1] is 5.77; in assay [2], 8.84. Also, the “[Aurora A IC50 (nM)]/[PLK4 IC50 (nM)]” value in assay [3] was determined as 3483.1383. Moreover, the “[Aurora B IC50 (nM)]/[PLK4 IC50 (nM)]” value in assay [4] came out at 2831.3833.

Consider `CCOc1cc(S(=O)(=O)CC)cnc1Nc1n[nH]c2cc([C@@H]3C[C@@]34C(=O)Nc3ccc(OC)cc34)ccc12` [Example 274, (1R,2S)-2-(3-{[5-(Ethanesulfonyl)-3-ethoxypyridin-2-yl]amino}-1H-indazol-6-yl)-5′-methoxyspiro[cyclopropane-1,3′-indol]-2′(1′H)-one], for which the values for the pIC50 in assay [1] and in assay [2] were 7.14 and 9.12, respectively. In addition, in assay [3], the “[Aurora A IC50 (nM)]/[PLK4 IC50 (nM)]” value was determined as 2560.9436. In addition, the “[Aurora B IC50 (nM)]/[PLK4 IC50 (nM)]” value in assay [4] came to 961.3368.
